Patent US20260250250A1, “3-(SULPHONYL OR SULFONIMIDOYL)PROP-2-EN-1-YL]-2-OXO-1,2-DIHYDROPYRIDINE-3-CARBOXAMIDE DERIVATIVES” (Flinder Therapeutics B.V., priority 2022, published 2026)
Structures can show the parent of a compound that is named as a salt.

What was measured:
[1] = target: T1, human E3 ubiquitin-protein ligase RNF31 (HOIP) (Homo sapiens, UniProt Q96EP0); assay: Cell-free HTRF-based HOIP inhibition assay; type: biochemical
T1 sequence (Q96EP0 695-1072 limits assumed): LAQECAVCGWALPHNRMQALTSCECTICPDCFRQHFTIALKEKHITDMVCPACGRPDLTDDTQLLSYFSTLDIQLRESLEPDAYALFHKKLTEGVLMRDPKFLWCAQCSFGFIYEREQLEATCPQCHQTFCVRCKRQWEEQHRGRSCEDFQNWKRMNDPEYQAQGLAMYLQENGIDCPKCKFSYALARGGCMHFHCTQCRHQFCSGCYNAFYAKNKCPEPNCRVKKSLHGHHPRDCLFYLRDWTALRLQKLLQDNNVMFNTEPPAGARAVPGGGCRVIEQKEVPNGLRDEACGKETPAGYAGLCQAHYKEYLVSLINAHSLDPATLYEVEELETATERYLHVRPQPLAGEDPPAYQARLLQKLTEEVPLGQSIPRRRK
Procedure, shortened: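 Recombinant human HOIP fragment (E. coli) preincubated with compounds (100-0.005 μM, 1% DMSO) and E1 for 1 h at 25° C. E2 and substrates then added; reaction 2.5 h at 25° C. HTRF read-out, excitation 337 nm, emissions 665/620 nm.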

NF-κB signaling pathway = assay: Cell-based dual luciferase NF-κB reporter assay (HEK293 cells, TNF stimulated); conditions: Homo sapiens, HEK293
Procedure, shortened: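 HEK293 cells transfected with Firefly luciferase and NF-κB-response-element NanoLuc plasmids; compounds at 100–0.005 µM in 1% DMSO. Cells stimulated with 2.5 ng/mL TNF 30 min after compound addition. Firefly and NanoLuc activities read after 6 h by Nano-Glo dual-luciferase detection.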

[2] = test system: bladder carcinoma RT4 cell line; assay: TNF-α-induced cytotoxicity assay (CellTiter-Glo viability); type: cell-based; conditions: Homo sapiens, RT-4, 72 h
Procedure, shortened: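 RT4 bladder carcinoma cells, 1000 per well, stimulated with 1.25 ng/mL TNFα together with compound for 72 h at 37° C., 5% CO2. Viability read by CellTiter-Glo luminescence, proportional to cellular ATP, as a measure of HOIP-dependent cytotoxicity.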

| Compound | IC50 [1] [nM] | IC50 (NF-κB signaling pathway) [nM] | IC50 [2] [nM] |
| --- | --- | --- | --- |
| COc1ccc(S(=N)(=O)/C=C/CNC(=O)c2cc3c([nH]c2=O)CCCC3)cc1OC (stereo not drawn) [Example 52, N-[(2E)-3-[(3,4-dimethoxyphenyl)(imino)oxo-λ^6-sulfanyl]prop-2-en-1-yl]-2-oxo-1,2,5,6,7,8-hexahydroquinoline-3-carboxamide] | ≤ 1000 | ≤ 10000 | ≤ 1000 |
| O=C(NC/C=C/S(=O)(=O)c1ccccc1)c1cc2c([nH]c1=O)CCN(C(=O)C1CC1c1ccccc1)C2 (stereo not drawn) [Example 125, N-[(2E)-3-(benzenesulfonyl)prop-2-en-1-yl]-2-oxo-6-(2-phenylcyclopropanecarbonyl)-1,2,5,6,7,8-hexahydro-1,6-naphthyridine-3-carboxamide] | ≤ 1000 | ≤ 10000 | ≤ 10000 |
| O=C(NC/C=C/S(=O)(=O)c1ccccc1)c1cc2c([nH]c1=O)CCN(C(=O)C1CC1)C2 [Example 109, N-[(2E)-3-(benzenesulfonyl)prop-2-en-1-yl]-6-cyclopropanecarbonyl-2-oxo-1,2,5,6,7,8-hexahydro-1,6-naphthyridine-3-carboxamide] | ≤ 1000 | ≤ 100000 | ≤ 100000 |
| O=C(NC/C=C/S(=O)(=O)c1ccccc1)c1cc(-c2ccccc2)c[nH]c1=O [Example 12, N-[(2E)-3-(benzenesulfonyl)prop-2-en-1-yl]-2-oxo-5-phenyl-1,2-dihydropyridine-3-carboxamide] | ≤ 1000 | ≤ 10000 | ≤ 10000 |
| CC(OC(=O)N1CCc2[nH]c(=O)c(C(=O)NC/C=C/S(=O)(=O)c3ccccc3)cc2C1)c1c(F)cccc1F (stereo not drawn) [Example 91, 1-(2,6-difluorophenyl)ethyl 3-{[(2E)-3-(benzenesulfonyl)prop-2-en-1-yl]carbamoyl}-2-oxo-1,2,5,6,7,8-hexahydro-1,6-naphthyridine-6-carboxylate] | ≤ 1000 | ≤ 1000 | ≤ 1000 |
| O=C(NC/C=C/S(=O)(=O)c1ccc(Cl)cc1)c1cc2c([nH]c1=O)CCN(C(=O)OCC1CC1(F)F)C2 (stereo not drawn) [Example 86, (2,2-difluorocyclopropyl)methyl 3-{[(2E)-3-(4-chlorobenzenesulfonyl)prop-2-en-1-yl]carbamoyl}-2-oxo-1,2,5,6,7,8-hexahydro-1,6-naphthyridine-6-carboxylate] | ≤ 100 | ≤ 1000 | ≤ 10000 |
| COc1ccc(S(=N)(=O)/C=C/CNC(=O)c2cc(-c3ccccc3)c[nH]c2=O)cc1F (stereo not drawn) [Example 149, N-[(2E)-3-[(3-fluoro-4-methoxyphenyl)(imino)oxo-λ^6-sulfanyl]prop-2-en-1-yl]-2-oxo-5-phenyl-1,2-dihydropyridine-3-carboxamide] | ≤ 1000 | ≤ 10000 | ≤ 10000 |
| O=C(NC/C=C/S(=O)(=O)c1ccccc1)c1cc2c([nH]c1=O)CCN(C(=O)OCCc1ccc(Cl)cc1)C2 [Example 122, 2-(4-chlorophenyl)ethyl 3-{[(2E)-3-(benzenesulfonyl)prop-2-en-1-yl]carbamoyl}-2-oxo-1,2,5,6,7,8-hexahydro-1,6-naphthyridine-6-carboxylate] | ≤ 1000 | ≤ 1000 | ≤ 1000 |
| O=C(NC/C=C/S(=O)(=O)c1ccccc1)c1cc2c([nH]c1=O)CCNC2 [Example 66, N-[(2E)-3-(benzenesulfonyl)prop-2-en-1-yl]-2-oxo-1,2,5,6,7,8-hexahydro-1,6-naphthyridine-3-carboxamide hydrochloride] | ≤ 10000 | ≤ 10000 | ≤ 10000 |
| COc1ccc(S(=N)(=O)/C=C/CNC(=O)c2cc3c([nH]c2=O)CCN(C(=O)OCCF)C3)cc1F (stereo not drawn) [Example 180, 2-fluoroethyl 3-{[(2E)-3-[(3-fluoro-4-methoxyphenyl)(imino)oxo-λ^6-sulfanyl]prop-2-en-1-yl]carbamoyl}-2-oxo-1,2,5,6,7,8-hexahydro-1,6-naphthyridine-6-carboxylate] | ≤ 100 | ≤ 10000 | ≤ 10000 |
| O=C(NC/C=C/S(=O)(=O)c1ccccc1)c1cc2c([nH]c1=O)CCN(C(=O)OC1COC1)C2 [Example 67, oxetan-3-yl 3-{[(2E)-3-(benzenesulfonyl)prop-2-en-1-yl]carbamoyl}-2-oxo-1,2,5,6,7,8-hexahydro-1,6-naphthyridine-6-carboxylate] | ≤ 1000 | ≤ 10000 | ≤ 100000 |
| COc1ccc(S(=N)(=O)/C=C/CNC(=O)c2cc3c([nH]c2=O)CCC(C(F)(F)F)C3)cc1F (stereo not drawn) [Example 147, N-[(2E)-3-[(3-fluoro-4-methoxyphenyl)(imino)oxo-λ^6-sulfanyl]prop-2-en-1-yl]-2-oxo-6-(trifluoromethyl)-1,2,5,6,7,8-hexahydroquinoline-3-carboxamide] | ≤ 1000 | ≤ 10000 | ≤ 10000 |
| O=C(NC/C=C/S(=O)(=O)c1ccc(Cl)cc1)c1cc2ccccc2[nH]c1=O [Example 28, N-[(2E)-3-(4-chlorobenzenesulfonyl)prop-2-en-1-yl]-2-oxo-1,2-dihydroquinoline-3-carboxamide] | ≤ 100 | ≤ 1000 | ≤ 1000 |
| O=C(NC/C=C/S(=O)(=O)c1ccc(Cl)cn1)c1cc2c([nH]c1=O)CCN(C(=O)OCC1CC1)C2 [Example 95, cyclopropylmethyl 3-{[(2E)-3-[(5-chloropyridin-2-yl)sulfonyl]prop-2-en-1-yl]carbamoyl}-2-oxo-1,2,5,6,7,8-hexahydro-1,6-naphthyridine-6-carboxylate] | ≤ 100 | ≤ 1000 | ≤ 10000 |

Continued, in another order:

| IC50 [1] [nM] | IC50 (NF-κB signaling pathway) [nM] | Compound | IC50 [2] [nM] |
| --- | --- | --- | --- |
| ≤ 100 | ≤ 1000 | O=C(NC/C=C/S(=O)(=O)c1ccc(Cl)cn1)c1cc2c([nH]c1=O)CCCC2 [Example 11, N-[(2E)-3-[(5-chloropyridin-2-yl)sulfonyl]prop-2-en-1-yl]-2-oxo-1,2,5,6,7,8-hexahydroquinoline-3-carboxamide] | ≤ 1000 |
| ≤ 1000 | ≤ 1000 | COc1ccc(S(=O)(=O)/C=C/CNC(=O)c2cc3c([nH]c2=O)CCCC3)cc1OC [Example 45, N-[(2E)-3-(3,4-dimethoxybenzenesulfonyl)prop-2-en-1-yl]-2-oxo-1,2,5,6,7,8-hexahydroquinoline-3-carboxamide] | ≤ 10000 |
| ≤ 100 | ≤ 1000 | O=C(NC/C=C/S(=O)(=O)c1ccc(C2CC2)cc1)c1cc2c([nH]c1=O)CCCC2 [Example 55, N-[(2E)-3-(4-cyclopropylbenzenesulfonyl)prop-2-en-1-yl]-2-oxo-1,2,5,6,7,8-hexahydroquinoline-3-carboxamide] | ≤ 1000 |
| ≤ 100 | ≤ 1000 | O=C(NC/C=C/S(=O)(=O)c1ccc(Br)cc1)c1cc2c([nH]c1=O)CCCC2 [Example 5, N-[(2E)-3-(4-bromobenzenesulfonyl)prop-2-en-1-yl]-2-oxo-1,2,5,6,7,8-hexahydroquinoline-3-carboxamide] | ≤ 1000 |
| ≤ 1000 | ≤ 1000 | N=S(=O)(/C=C/CNC(=O)c1cc2c([nH]c1=O)CCCC2)c1ccccc1F (stereo not drawn) [Example 132, N-[(2E)-3-[(2-fluorophenyl)(imino)oxo-λ^6-sulfanyl]prop-2-en-1-yl]-2-oxo-1,2,5,6,7,8-hexahydroquinoline-3-carboxamide] | ≤ 10000 |
| ≤ 1000 | ≤ 1000 | O=C(NC/C=C/S(=O)(=O)c1ccc(F)cc1F)c1cc2c([nH]c1=O)CCCCC2 [Example 34, N-[(2E)-3-(2,4-difluorobenzenesulfonyl)prop-2-en-1-yl]-2-oxo-1H,2H,5H,6H,7H,8H,9H-cyclohepta[b]pyridine-3-carboxamide] | ≤ 1000 |
| ≤ 100 | ≤ 10000 | O=C(NC/C=C/S(=O)(=O)c1ccccc1)c1cc2c([nH]c1=O)CCC2 [Example 43, N-[(2E)-3-(benzenesulfonyl)prop-2-en-1-yl]-2-oxo-1H,2H,5H,6H,7H-cyclopenta[b]pyridine-3-carboxamide] | ≤ 10000 |
| ≤ 100 | ≤ 1000 | O=C(NC/C=C/S(=O)(=O)c1ccccc1Cl)c1cc2c([nH]c1=O)CCCC2 [Example 41, N-[(2E)-3-(2-chlorobenzenesulfonyl)prop-2-en-1-yl]-2-oxo-1,2,5,6,7,8-hexahydroquinoline-3-carboxamide] | ≤ 1000 |
| ≤ 1000 | ≤ 1000 | Cc1ccc(S(=O)(=O)/C=C/CNC(=O)c2cc3c([nH]c2=O)CCCC3)cc1C [Example 51, N-[(2E)-3-(3,4-dimethylbenzenesulfonyl)prop-2-en-1-yl]-2-oxo-1,2,5,6,7,8-hexahydroquinoline-3-carboxamide] | ≤ 1000 |
| ≤ 1000 | ≤ 1000 | [2H]C([2H])(/C=C/S(=O)(=O)c1ccccc1)NC(=O)c1cc2c([nH]c1=O)CCCC2 [Example 53, N-[(2E)-3-(benzenesulfonyl)(1,1-^2H2)prop-2-en-1-yl]-2-oxo-1,2,5,6,7,8-hexahydroquinoline-3-carboxamide] | ≤ 1000 |
